Values of other authors in patent US20190381034A1, “PHARMACEUTICAL COMPOSITION AND METHOD FOR ACUTE ON CHRONIC LIVER FAILURE AND RELATED LIVER DISEASES” (priority 2018, published 2019).

Legend:
[1] = in vivo
[2] = laboratory test indicators, liver failure patients, oral TMZ 20 mg three times a day

Compound: COc1ccc(CN2CCNCC2)c(OC)c1OC.Cl.Cl [TMZ, 1-[2,3,4-trimethoxybenzyl] piperazine dihydrochloride]
- 30-day immortality rate of liver failure patients (liver failure patients; TMZ treatment group, 20 mg tablet orally three times a day, 4-week course, traditional therapeutic approach 44%): approximately 18%
- 90-day immortality rate of liver failure patients (liver failure patients; TMZ treatment group, 20 mg tablet orally three times a day, 4-week course, traditional therapeutic approach 68%): 35%
- decrease rate of alanine aminotransferase (liver failure patients; [2]): significantly raise the decrease rate
- decrease rate of aspartate transaminase (liver failure patients; [2]): significantly raise the decrease rate
- hepatic glucose metabolism (PET-CT imaging of liver) (liver failure patients; one liver failure patient, after taking TMZ): remarkably improved
- elimination half-life [1]: approximately 6 hours
- liver toxicity (liver): minimal liver toxicity
